The term half-life denotes the time needed for the level to fall by half in the phase considered.

Where a SMILES comes first, the peptide text is derived from it. [ ]: non-standard residue; d: D form. The star is where a group is joined. NH(4-amidinobenzyl) = N=C(N)c1ccc(CN*)cc1

Results on 1 compound are retold here after paper PMC10747822 (Pharmaceutics, 2023).

Data set [1] in a line: Bench-top stability in fresh mouse whole blood. In kind it is in vitro ADME. The following applies: minimally diluted, 1 µg/mL (1000 ng/mL), room temperature, sampled at 0, 1 and 2 h, duplicates of 20 µL, UPLC-MS/MS peak area ratio analyte/IS, read-out: calculated half-life in whole blood (converted). On the procedure: (§1) To investigate peptide stability, minimally diluted plasma or blood samples were generated through the addition of 10 µL of a spiking solution (50,000 ng/mL) to 490 µL of the pertinent biological matrix, resulting in a sample concentration of 1000 ng/mL. Samples (withdrawal of duplicates of 20 µL) were measured immediately after preparation and again after 1 and 2 h. Stability was evaluated via the comparison of peak area ratios of analyte and IS.
To determine which biological matrix is best suited for pharmacokinetic experiments in mice, we investigated the bench-top stability of Ac-[D-Leu]LLLRVK-amba in plasma and fresh whole blood at room temperature over a 2 h period (Figure 3). In plasma, anti-coagulated with Li-heparin, Ac-[D-Leu]LLLRVK-amba was very rapidly degraded.

A short description of data set [2]: Stability in human Li-heparin plasma. In kind it is in vitro ADME. The following applies: pooled human Li-heparin plasma, over at least 2 h; 1000 ng/mL, room temperature; UPLC-MS/MS. The protocol:
as §1
(§2) Because an isotopically labeled analog of Ac-[D-Leu]LLLRVK-amba was used as IS, potential variations in (negligible) matrix effects can be efficiently balanced by the IS due to its identical physicochemical characteristics. As a consequence, whole blood from other species is appropriate for calibration and QC preparation. Therefore, whole blood from human donors was used for these purposes, which also helps to reduce animal sacrifice.

Data set [3] can be described thus: Stability in human whole blood. It is filed as in vitro ADME. The following applies: human whole blood (K-EDTA), over at least 2 h; 1000 ng/mL, room temperature; UPLC-MS/MS. On the procedure:
as §1, §2

A further data set is described as follows: Stock solution stability. It is filed as physicochemical. The following applies: 2 weeks; solutions in ACN/H2O (1/1, v/v) + 0.1% FA in glass, kept at 4 °C. On the procedure: Calibration and quality control (QC) spike solutions were prepared in ACN/H2O (1/1, v/v) + 0.1% FA in glass vials. These were produced from stock solution generated from accurately dissolved independent weighings into 2 mL volumetric flasks. Calibration solutions were prepared at concentrations of 8, 24, 80, 240, 800, […], and 8000 ng/mL. QC solutions were prepared at concentrations of 8, 24, 3000, and 6000 ng/mL. The IS spike solution was prepared accordingly at a concentration of 400 ng/mL. Solutions were kept at 4 °C.
Extraction via protein precipitation combined with UPLC-MS/MS quantification for Ac-[D-Leu]LLLRVK-amba complied with the FDA and EMA recommendations for accuracy, precision, linearity, matrix effects, and recovery. Within the calibrated range (10–10,000 ng/mL), correlation coefficients (r^2) of >0.99 were obtained using linear regression and 1/x^2 weighting (Table S3). Table 1 gives an overview of the intraday and interday accuracies and precision values during validation, which were well within the required limits. The observed carry-over after the highest calibration sample was 0.015% and within the required limits of less than 20% of the peak area of the LLOQ. Stock solution stability was established for 2 weeks, which was sufficient to cover sample analyses with an accuracy of 93.7% of the peak areas of the stored solutions compared to initial values.

The next data set has as its system PACE4. As to conditions: cited from earlier work. The source says: PACE4 is a calcium-dependent serine endoprotease, which has been identified as a potential therapeutic target in prostate cancer. Recently, an efficient inhibitory peptide for PACE4 has been reported, Ac-[D-Leu]LLLRVK-amba, which inhibits PACE4 with low nanomolar affinity. Such high affinity was achieved by optimizing the previously discovered multi-Leu peptide by inserting a […] acetylated D-leucine and replacing the […] arginine with a decarboxylated variant, a 4-amidinobenzylamide (amba) moiety.

Another data set deals with LNCaP xenograft. The following applies: cited from earlier work. An excerpt: A major challenge in the development of peptide therapeutics is their susceptibility to enzymatic hydrolysis in biological systems. A primary mechanism of enzymatic degradation of small peptides in the systemic circulation is peptidase-mediated hydrolysis, especially of terminal amino acids by exopeptidase activity. Ac-[D-Leu]LLLRVK-amba comprises stability-enhancing modifications at both peptide termini: a D-amino acid at the N-terminus and an amba-moiety as a decarboxylated arginine variant at the C-terminus. Both modifications impair substrate properties for exopeptidases and thus inc ... || The pharmacokinetics of Ac-[D-Leu]LLLRVK-amba was already determined after intravenous bolus injection. With a half-life of only 9 min, this route of administration only produced a short period of potentially effective concentrations. […] Therefore, we aimed at flattening the pharmacokinetic profile with alternate routes of administr ...

Regarding `CC(=O)N[C@H](CC(C)C)C(=O)N[C@@H](CC(C)C)C(=O)N[C@@H](CC(C)C)C(=O)N[C@@H](CC(C)C)C(=O)N[C@@H](CCCNC(=N)N)C(=O)N[C@H](C(=O)N[C@@H](CCCCN)C(=O)NCc1ccc(C(=N)N)cc1)C(C)C` [Ac-[D-Leu]LLLRVK-amba] (Ac-[dL]LLLRVK-{NH(4-amidinobenzyl)}), the half-life at 1000 ng/mL in data set [1] was 1.39 h. Moreover, the “degradation in human Li-heparin plasma” value in data set [2] is reported as “no detectable degradation”. For the same compound, the “degradation in human whole blood” value in data set [3] was “no detectable degradation”. The “stock solution stability, accuracy of peak areas of stored solutions compared to initial values” in “Stock solution stability” turned out to be 93.7%. Moreover, the “affinity of PACE4 inhibition” value in the data set with PACE4 is “low nanomolar”. In the data set on LNCaP xenograft (daily intravenous and intratumoral injection of 2 mg/kg), the “efficacy in mouse xenograft models of prostate cancer” value is recorded as “demonstrated”. In addition, the “efficacy in treating prostate cancer in LNCaP xenograft mice, by route” value in the data set on LNCaP xenograft (intratumoral vs intravenous administration) is listed as “substantially higher when injected intratumorally than when administered intravenously”.
